# Measurements reported in patent US12558428B2, “Heterobifunctional compounds and their use in treating disease” (Halda Therapeutics OpCo, Inc., priority 2024, dated 2026).
# Like-named read-outs stand apart in the source and are kept apart here.
# Experiments:
# Assay type in all cases: cell-based
# [1] = system: T-Rex 293 cells having increased expression of estrogen receptor alpha protein; test: Cellular growth inhibition assay, T-Rex 293 cells, (+) doxycycline; details: T-REx-293, 72 h, 72 hours
# Summary of the method: (§1)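 ERα overexpression was switched on by 3 ng/mL doxycycline in a stably transfected T-Rex 293 clone, while uninduced cells served as the comparison line. Proliferation over 72 h of compound treatment was assessed by ATP luminescence, and GI50 values came from four-parameter curves.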
# [2] = system: T-Rex 293 cells lacking increased expression of estrogen receptor alpha protein; test: Cellular growth inhibition assay, T-Rex 293 cells, (−) doxycycline; details: T-REx-293, 72 h, 72 hours
# Summary of the method: as §1
# [3] = system: MCF7 cells (ATCC #HTB-22); test: Cellular growth inhibition assay, MCF7 cells purchased from ATCC; details: Homo sapiens, MCF7, 144 h, Table 8-A; MCF7 cells purchased from ATCC; six days; CellTiter-Glo; read-out: GI50
# Summary of the method: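 MCF7 cells in RPMI 1640 with 10% FBS and 0.2 U/ml insulin, seeded at 1,500 cells/well (ATCC) or 225 cells/well (ECACC). Compounds added 24 h later, then 6 days at 37° C. Viability by CellTiter-Glo 2.0 luminescence. GI50 from four-parameter fit.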
# [4] = Table 7-A, T-Rex 293 cells with doxycycline (increased ERα expression), CellTiter-Glo, read-out: (+) Dox GI50
# [5] = Table 7-A, T-Rex 293 cells without doxycycline (lacking increased ERα expression), CellTiter-Glo, read-out: (−) Dox GI50
# [6] = T-Rex 293 cells with doxycycline-induced ERα expression, CellTiter-Glo 2.0, read-out: (+) Dox TRex ERa (GI50)
# [7] = T-Rex 293 cells without doxycycline, CellTiter-Glo 2.0, read-out: (−) Dox TRex ERa (GI50)
GI50 [3] [nM],Structure (SMILES),"GI50 [1, 4] [nM]","GI50 [2, 5] [nM]","GI50 [1, 6] [nM]","GI50 [2, 7] [nM]"
< 50,Cc1sc2c(c1C)C(c1ccc(N3CC(CN4CCC(F)(CC5CN(c6ccc([C@@H]7c8ccc(O)cc8CC[C@@H]7c7ccccc7)cc6)C5)CC4)C3)cc1)=N[C@@H](C)c1nnc(C)n1-2 [III-212],< 50,50 to 500,,
< 50,"Cc1sc2c(c1C)C(c1ccc(N3CCN(CC4CCN(c5ccc([C@@H]6c7ccc(O)cc7CC[C@@H]6c6ccccc6)cc5)CC4)CC3)cc1)=N[C@@H](Cc1ncco1)c1nnc(C)n1-2 [I-12, (5R,6S)-6-phenyl-5-(4-(4-((4-(4-((S)-2,3,9-trimethyl-6-(oxazol-2-ylmethyl)-6H-thieno[3,2-f][1,2,4]triazolo[4,3-a][1,4]diazepin-4-yl)phenyl)piperazin-1-yl)methyl)piperidin-1-yl)phenyl)-5,6,7,8-tetrahydronaphthalen-2-ol]",< 50,500 to 2500,,
< 50,"Cc1sc2c(c1C)C(c1ccc(OCCCCC3CCN(CCOc4ccc(C(=O)c5c(-c6ccc(O)cc6)sc6cc(O)ccc56)cc4)CC3)cc1)=N[C@@H](Cc1ncco1)c1nnc(C)n1-2 [I-9, (S)-(6-hydroxy-2-(4-hydroxyphenyl)benzo[b]thiophen-3-yl)(4-(2-(4-(4-(4-(2,3,9-trimethyl-6-(oxazol-2-ylmethyl)-6H-thieno[3,2-f][1,2,4]triazolo[4,3-a][1,4]diazepin-4-yl)phenoxy)butyl)piperidin-1-yl)ethoxy)phenyl)methanone]",,,< 50,50 to 500
50 to 500,Cc1sc2c(c1C)C(c1ccc(N3CC(CN4CCN(CC5(O)CN(c6ccc([C@@H]7c8ccc(O)cc8CC[C@@H]7c7ccccc7)cc6)C5)CC4)C3)cc1)=N[C@@H](C)c1nnc(C)n1-2 [III-166],< 50,50 to 500,,
500 to 2500,Cc1sc2c(c1C)C(c1ccc(CC3CC4(CCN(c5ccc([C@@H]6c7ccc(O)cc7CC[C@@H]6c6ccccc6)cc5)CC4)C3)cc1)=N[C@@H](C)c1nnc(C)n1-2 [III-14],50 to 500,500 to 2500,,
< 50,Cc1sc2c(c1C)C(c1ccc(N3CC4(CC(CN5CCC(c6ccc([C@@H]7c8ccc(O)cc8CC[C@@H]7c7ccccc7)cc6)CC5)C4)C3)cc1)=N[C@@H](C)c1nnc(C)n1-2 [III-242],< 50,500 to 2500,,
< 50,Cc1sc2c(c1C)C(c1ccc(N3CCC(O)(CN4CCN(c5ccc(C6=C(c7ccccc7Cl)CCCc7cc(C(=O)O)ccc76)cc5F)CC4)CC3)cc1)=N[C@@H](C)c1nnc(C)n1-2 [IV-35],< 50,500 to 2500,,
50 to 500,Cc1sc2c(c1C)C(c1ccc(N3CCC(O)(CN4CCC(c5ccc([C@H]6c7ccc(O)cc7CC[C@H]6c6ccccc6)cc5)CC4)CC3)cc1)=N[C@@H](C)c1nnc(C)n1-2 [III-24],< 50,50 to 500,,
> 2500,Cc1sc2c(c1C)C(c1ccc(N3CCC(O)(CN4CCN(c5ccc([C@@H]6c7ccc(O)cc7CC[C@@H]6c6ccccc6)cc5)CC4)CC3)cc1)=N[C@@H](Cc1ncco1)c1nnc(C)n1-2 [III-143],> 2500,> 2500,,
50 to 500,Cc1sc2c(c1C)C(c1ccc(NCCC3CCCN(CCOc4ccc([C@@H]5c6ccc(O)cc6CC[C@@H]5c5ccccc5)cc4)C3)cc1)=NC(Cc1ncco1)c1nnc(C)n1-2 (stereo partly drawn) [III-45],< 50,50 to 500,,
50 to 500,Cc1sc2c(c1C)C(c1ccc(N3CCC(O)(CN4CCN(c5ccc(C6=C(c7ccc(Cl)cc7Cl)CCCc7cc(C(=O)O)ccc76)cc5)CC4)CC3)cc1)=N[C@H](Cc1ncco1)c1nnc(C)n1-2 [IV-30],500 to 2500,500 to 2500,,
< 50,"COc1cc(N2CCN(CC3(O)CCN(c4cc(F)c(C5=N[C@@H](C)c6nnc(C)n6-c6sc(C)c(C)c65)cc4F)CC3)CC2)c(F)cc1[C@@H]1c2ccc(O)cc2CC[C@@H]1c1ccccc1 [III-341, 1-(2,5-difluoro-4-((6S)-2,3,6,9-tetramethyl-6H-thieno[3,2-f][1,2,4]triazolo[4,3-a][1,4]diazepin-4-yl)phenyl)-4-((4-(2-fluoro-4-((1S,2S)-6-hydroxy-2-phenyl-1,2,3,4-tetrahydronaphthalen-1-yl)-5-methoxyphenyl)piperazin-1-yl)methyl)piperidin-4-ol]",< 50,> 2500,,
< 50,Cc1sc2c(c1C)C(c1ccc(N3CC(CC4CCN(CC5(F)CN(c6ccc([C@@H]7c8ccc(O)cc8CC[C@@H]7c7ccccc7)cc6)C5)CC4)C3)cc1)=N[C@@H](C)c1nnc(C)n1-2 [III-151],< 50,> 2500,,
< 50,Cc1sc2c(c1C)C(c1ccc(N3CC4(CCC(CN5CCC(c6ccc(C7=C(c8ccccc8)CCCc8cc(C(=O)O)ccc87)cc6)CC5)CC4)C3)cc1)=N[C@@H](C)c1nnc(C)n1-2 [IV-44],< 50,500 to 2500,,
> 2500,"Cc1sc2c(c1C)C(c1ccc(CC3CC4(CCN(c5ccc([C@@H]6c7ccc(O)cc7CC[C@@H]6c6ccccc6)cc5)CC4)C3)cc1)=N[C@@H](Cc1ncco1)c1nnc(C)n1-2 [I-62, (5R,6S)-6-phenyl-5-(4-(2-(4-((S)-2,3,9-trimethyl-6-(oxazol-2-ylmethyl)-6H-thieno[3,2-f][1,2,4]triazolo[4,3-a][1,4]diazepin-4-yl)benzyl)-7-azaspiro[3.5]nonan-7-yl)phenyl)-5,6,7,8-tetrahydronaphthalen-2-ol]",50 to 500,500 to 2500,,
50 to 500,Cc1sc2c(c1C)C(c1ccc(NCC3(F)CCN(CCOc4ccc([C@@H]5c6ccc(O)cc6CC[C@@H]5c5ccccc5)cc4)CC3)cc1)=NC(Cc1ncco1)c1nnc(C)n1-2 (stereo partly drawn) [III-30],< 50,50 to 500,,
< 50,"Cc1sc2c(c1C)C(c1ccc(OCCOCCOCCCN3CC(Nc4ccc([C@@H]5c6ccc7n[nH]cc7c6C[C@@H](C)N5CC(F)(F)F)nc4)C3)cc1)=N[C@@H](C)c1nnc(C)n1-2 [I-33, 6-((6S,8R)-8-methyl-7-(2,2,2-trifluoroethyl)-6,7,8,9-tetrahydro-2H-pyrazolo[4,3-f]isoquinolin-6-yl)-N-(1-(3-(2-(2-(4-((S)-2,3,6,9-tetramethyl-6H-thieno[3,2-f][1,2,4]triazolo[4,3-a][1,4]diazepin-4-yl)phenoxy)ethoxy)ethoxy)propyl)azetidin-3-yl)pyridin-3-amine]",,,< 50,> 2500
< 50,Cc1sc2c(c1C)C(c1ccc(N3CC(CN4CCN(CC5CN(c6ccc([C@@H]7c8ccc(O)cc8CC[C@@H]7c7ccccc7)cc6)C5)CC4)C3)cc1)=N[C@@H](Cc1ncco1)c1nnc(C)n1-2 [III-162],< 50,50 to 500,,
50 to 500,Cc1sc2c(c1C)C(c1ccc(C34COC(CN5CCN(c6ccc([C@H]7c8ccc(O)cc8CC[C@H]7c7ccccc7)cc6)CC5)(C3)C4)cc1)=N[C@@H](C)c1nnc(C)n1-2 [III-83],50 to 500,500 to 2500,,
< 50,Cc1sc2c(c1C)C(c1ccc(N3CC(CC4(O)CCN(c5ccc([C@@H]6c7ccc(O)cc7CC[C@@H]6c6ccccc6)cc5)CC4)C3)cc1)=N[C@@H](Cc1ncco1)c1nnc(C)n1-2 [III-178],< 50,50 to 500,,
< 50,Cc1sc2c(c1C)C(c1ccc(N3CC(CN4CCC(O)(CN5CC(c6ccc([C@@H]7c8ccc(O)cc8CC[C@@H]7c7ccccc7)cc6)C5)CC4)C3)cc1)=N[C@@H](Cc1ncco1)c1nnc(C)n1-2 [III-180],< 50,50 to 500,,
50 to 500,Cc1sc2c(c1C)C(c1ccc(C3CN(C[C@H]4C[C@@H](CN5CC(c6ccc([C@@H]7c8ccc(O)cc8CC[C@@H]7c7ccccc7)cc6)C5)C4)C3)cc1)=N[C@@H](C)c1nnc(C)n1-2 [III-260],< 50,500 to 2500,,
50 to 500,Cc1sc2c(c1C)C(c1ccc(N3CCC(O)(CN4CCN(c5ccc([C@H]6c7ccc(O)cc7CC[C@H]6c6cccc(F)c6)c(F)c5)CC4)CC3)cc1)=N[C@@H](C)c1nnc(C)n1-2 [III-290],< 50,50 to 500,,
< 50,Cc1sc2c(c1C)C(c1ccc(N3CC(CC4(O)CCN(CC5CN(c6ccc([C@@H]7c8ccc(O)cc8CC[C@@H]7c7ccccc7)cc6)C5)CC4)C3)cc1)=N[C@@H](C)c1nnc(C)n1-2 [III-235],< 50,500 to 2500,,
< 50,Cc1sc2c(c1C)C(c1ccc(N3CC4(CN(CC5CCN(c6ccc([C@@H]7c8ccc(O)cc8CC[C@@H]7c7ccccc7)cc6)CC5)C4)C3)cc1)=N[C@@H](C)c1nnc(C)n1-2 [III-97],< 50,500 to 2500,,
50 to 500,Cc1sc2c(c1C)C(c1ccc(N3CCCN(CCCNCCOc4ccc([C@@H]5c6ccc(O)cc6CC[C@@H]5c5ccccc5)cc4)CC3)cc1)=NC(Cc1ncco1)c1nnc(C)n1-2 (stereo partly drawn) [III-42],< 50,50 to 500,,
< 50,Cc1sc2c(c1C)C(c1ccc(N3CC(CC4CCN(C(=O)C5CN(c6ccc([C@@H]7c8ccc(O)cc8CC[C@@H]7c7ccccc7)cc6)C5)CC4)C3)cc1)=N[C@@H](C)c1nnc(C)n1-2 [III-135],< 50,500 to 2500,,
